Legend:
P2X purinoceptor 3 = molecular target: T1, P2X purinoceptor 3 (Rattus norvegicus, UniProt P49654); assay: Antagonist activity against rat P2X3 receptor expressed in CHOK1 cells assessed as inhibition of alpha,beta-meATP-induced calcium response incubated for 20 mins by Fluo-3AM dye based FLIPR assay; assay type: functional, cell-based, CHO-K1
T1 sequence (P49654 whole entry): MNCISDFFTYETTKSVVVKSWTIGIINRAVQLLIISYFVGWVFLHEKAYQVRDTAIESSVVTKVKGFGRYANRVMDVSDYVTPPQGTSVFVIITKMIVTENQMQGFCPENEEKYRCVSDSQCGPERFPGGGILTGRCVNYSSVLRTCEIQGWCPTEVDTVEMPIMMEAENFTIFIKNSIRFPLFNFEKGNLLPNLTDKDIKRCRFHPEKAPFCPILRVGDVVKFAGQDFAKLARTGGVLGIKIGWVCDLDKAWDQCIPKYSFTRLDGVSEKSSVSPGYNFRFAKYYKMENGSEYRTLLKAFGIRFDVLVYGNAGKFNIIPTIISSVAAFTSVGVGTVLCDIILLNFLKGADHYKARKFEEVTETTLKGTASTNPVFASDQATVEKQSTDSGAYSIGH

[1] = molecular target: T2, P2X2/P2X3 heterotrimeric receptor (Homo sapiens, UniProt P56373+Q9UBL9); assay: Antagonist activity against human P2X2/3 receptor expressed in CHOK1 cells assessed as inhibition of alpha,beta-meATP-induced calcium response incubated for 20 mins by Fluo-3AM dye based FLIPR assay; assay type: functional, cell-based, CHO-K1
T2 sequence (Q9UBL9 whole entry): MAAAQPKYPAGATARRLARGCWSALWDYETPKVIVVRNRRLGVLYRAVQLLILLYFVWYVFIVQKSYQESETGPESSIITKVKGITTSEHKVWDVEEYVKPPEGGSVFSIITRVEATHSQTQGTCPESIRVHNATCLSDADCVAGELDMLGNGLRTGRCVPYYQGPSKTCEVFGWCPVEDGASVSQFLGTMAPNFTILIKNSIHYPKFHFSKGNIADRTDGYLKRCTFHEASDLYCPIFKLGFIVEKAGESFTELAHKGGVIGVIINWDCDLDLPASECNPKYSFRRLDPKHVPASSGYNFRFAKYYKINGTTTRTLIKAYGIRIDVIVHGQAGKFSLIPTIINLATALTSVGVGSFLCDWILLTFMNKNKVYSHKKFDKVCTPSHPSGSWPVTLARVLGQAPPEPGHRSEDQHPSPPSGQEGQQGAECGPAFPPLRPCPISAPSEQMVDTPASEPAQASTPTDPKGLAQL
T2 sequence (P56373 whole entry): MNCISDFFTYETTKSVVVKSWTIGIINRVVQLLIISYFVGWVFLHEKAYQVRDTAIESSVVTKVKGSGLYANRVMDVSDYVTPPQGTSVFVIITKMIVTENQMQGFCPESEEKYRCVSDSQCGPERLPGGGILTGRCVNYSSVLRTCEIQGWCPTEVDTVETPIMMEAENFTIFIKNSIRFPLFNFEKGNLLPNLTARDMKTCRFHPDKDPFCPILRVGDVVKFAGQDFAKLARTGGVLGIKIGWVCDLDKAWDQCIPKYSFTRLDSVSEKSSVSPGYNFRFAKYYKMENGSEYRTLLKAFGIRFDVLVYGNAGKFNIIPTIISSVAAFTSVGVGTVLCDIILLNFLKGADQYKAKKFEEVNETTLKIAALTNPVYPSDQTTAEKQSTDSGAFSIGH

Row | Ki (P2X purinoceptor 3) [nM] | Ki [1] [nM] | Compound
1 | 102 | 2880 | Cc1ccc(-c2cc(C(=O)N[C@@H](C)CO)cc3c2ccn3-c2ccccc2)nc1
2 | 288 | 7240 | Cc1ccc(-c2cc(C(=O)N[C@@H](C)CO)cc3c2cnn3CC(C)C)nc1
3 | 18.6 | 457 | Cc1ccc(-c2cc(C(=O)NCc3cnc(C)cn3)cc3c2ccn3-c2ccccc2)nc1
